Measured values as given in US8816095B2, “Na channels, disease, and related assays and compositions” (Georgetown University, priority 2008, dated 2014).

Legend:
[1] = target: T1, hERG potassium channels (Homo sapiens, UniProt Q12809); assay: hERG binding assay ([35S]MK-499 displacement); conditions: [35S]MK-499, HEK-293 hERG membranes
T1 construct: expressed in transfected cells; host or cells: HEK-293 (membranes)
Source text: All four compounds were also counter-screened for human ether-a-go-go-related gene (hERG) activity against the radio-ligand MK-0499. Blockade of hERG K^+ channels is widely regarded as the predominant cause of drug-induced QT prolongation. (Aronov, A J Med Chem. 2006 Nov. 16; 49(23):6917-21).
MK-499, a potent hERG blocker, was used in a ligand binding assay to evaluate the binding of test compounds to hERG potassium channels as previously described (Wang, J et al. Am J Physiol Heart Circ Physiol, 2003, 284: H256-H267).^2 Test compounds were incubated with 0.05 nM of radiolabeled MK-499 ([35S]MK-499; specific Activity=1,279,010 μCi/μmol) in an assay buffer solution (70 mM NaCl, 60 mM KCl, 10 mM HEPES/NaOH (pH 7.4), 2 mM MgCl2, 1 mM CaCl2) also containing membranes isolated from HEK-293 cells stably expressing hERG channels in 96 well polypropylene deep-well assay plates at room temperature (25° C.) for >90 min. Assay plates were rinsed three time with buffer (130 mM NaCl, 10 mM HEPES/NaOH (pH 7.4), 2 mM MgCl2, 1 mM CaCl2) and the solution transferred to a Packard FilterMate Universal Harvester apparatus and filtered using PerkinElmer UniFilter-96 GF/C 96-well white microplates pre-soaked with 0.3% BSA (10 mL/L of 30% BSA). Plates were dried overnight at 37° C., or for 2 hrs at 56° C. The bottom of the plates were sealed and 0.025 mL of Microscint 0 was added to each well. The plates were top sealed and counted for 2 min/well in a Packard TopCount Scintillation counter. Test compounds were evaluated in a five point titration format using half-log steps from 0.3 μM to 30 μM. […] Less than 5% of the added radioactivity was retained on the filters. Assays were performed in triplicate.

[2] = system: CWR22rv-1 cells; assay: CWR22rv-1 prostate cancer cell death (propidium iodide, FACS); type: cell-based, human
Procedure: CWR22Rv1 cells (ATCC, Manassas, Va.) were seeded in 6 well tissue culture plate at density of 300,000 cells/well and maintained in RPMI 1640 (Mediatech, Herndon, Va.) containing 10% fetal bovine serum, 2.5 mM L-glutamine, and penicillin-streptomycin (100 IU/ml and 100 μg/ml, respectively) at 37° C. with 5% CO2. Cells were then switched to serum free RPMI media overnight prior to drug treatment. Compounds were dissolved in 100% dimethylsulfoxide (DMSO) and diluted to the desired concentrations in serum free RPMI. Cells were treated with indicated drug concentrations (in triplicate per treatment point) for 24, 48, 72 hour. After treatment, cells were harvested by trypsinization and fixed in 70% ethanol. The fixed cells were then stained with propidium iodide (50 μg/ml) after treatment with RNase (5 μg/ml). The stained cells were analyzed for DNA content using FACSsort (Becton Dickinson). Cell cycle fractions were quantified with Cell Quest (Becton Dickinson) or ModFit LT (Verity Software House).

[3] = target: T2, human Nav channel isoform, Nav1.2 (Homo sapiens, UniProt Q99250); assay: Patch clamp electrophysiology of compound 1 on Nav1.2 in HEK 293; type: cell-based; conditions: HEK293, HEK 293 Nav1.2, holding −60 mV to +10 mV, read-out: inhibition of Nav channel current
T2 construct: expressed in transfected cells; host or cells: HEK 293
Procedure: The effects of the racemic mixture and enantiomers of compound 1 were also examined by patch clamp electrophysiology on the human Nav channel isoform, Nav1.2, stably expressed in human embryonic kidney cells (HEK 293). Nav currents were elicited by step depolarizations from a holding potential of −60 mV to +10 mV for 25 ms at 15 s intervals. Sodium currents were record during a control drug free condition, after 5 mins of drug perfusion and following washout. […] The racemic mixture inhibited the sodium channel current by 31.9±2.9% (n=3) at 1 μM and by 87.0±3.1% (n=3) at 10 μM (FIG. 14). All drug effects were fully reversible on washout.
Sodium currents were recorded using the whole-cell configuration of the patch clamp recording technique with an Axopatch 200 amplifier (Axon Instruments, Foster City, Calif.). All voltage protocols were applied using pCLAMP 9 software (Axon, USA) and a Digidata 1322A (Axon, USA). Currents were amplified and low pass filtered (2 kHz) and sampled at 33 kHz. Borosilicate glass pipettes were pulled using a Brown-Flaming puller (model P87, Sutter Instruments Co, Novato, Calif.) and heat polished to produce electrode resistances of 1.5-3.0 MΩ when filled with the following electrode solution (in mM); CsCl 130, MgCl2 1, MgATP 5, BAPTA 10, HEPES 5 (pH adjusted to 7.4 with CsOH). Cells were plated on glass coverslips and superfused with solution containing the following composition; (in mM) NaCl 130, KCl 4, CaCl2 1, MgCl2 5, HEPES 5, and glucose 5 (pH adjusted to 7.4 with NaOH). Compounds were prepared as 100 mM stock solutions in dimethyl sulfoxide (DMSO) and diluted to desired concentration (1 μM or 10 μM) in perfusion solution. All experiments were performed at room temperature (20-22° C.). After establishing whole-cell, a minimum series resistance compensation of 75% was applied and cells were held at −100 mV for 5 minutes to account for equilibrium gating shifts. Sodium currents were evoked by stepping to +10 mV from a holding potential of −60 mV for 25 ms at 15 s intervals. After control recordings, test compounds were applied for five minutes to allow for bath equilibration. Tonic block was assessed by comparing peak sodium current in drug free conditions to peak current when drug was present. Data analysis was performed using Clampfit software (v9, Axon Instruments, CA, USA) and Origin (v6, Microcal Software, MA, USA).

[4] = target: T3, hNav1.7 (Homo sapiens, UniProt Q15858); assay: Fluorescent (FRET) based sodium channel assay, hNav1.7; type: cell-based; conditions: HEK293 stably transfected with hNav1.7, 20 μM veratridine, read-out: hNav 1.7 IC50
T3 construct: expressed in transfected cells; host or cells: HEK293
Procedure: Two isoforms of the channel were examined: hNav1.5, a cardiac sodium channel associated with arrhythmias, and hNav1.7, an isoform found in the peripheral nervous system.
HEK293 cells stably transfected with either hNav1.5 or hNav1.7 were plated at approximately 11,000-20,000 cells/well in flat bottom, poly-D-lysine coated black-wall, clear-bottom, 384-well plates (Becton Dickinson, Bedford, Mass.), and incubated overnight at 37° C. in a 10% CO2 atmosphere in growth medium. Cells were washed with 0.03 mL of Dulbecco's phosphate buffered saline (D-PBS) containing calcium and magnesium. Cells were then incubated with 0.025 mL of a solution containing 10 μM CC2-DMPE and 0.02% pluronic acid in D-PBS with calcium and magnesium; supplemented with 10 mM glucose, and 10 mM Hepes-NaOH, pH 7.4. […] Afterwards, cells were incubated in the dark at 25° C. for 45 min with 0.025 mL of a solution containing 5 μM DiSBAC2(3) in VIPR-S, in the absence or presence of test compound. At the end of the incubation period, the plate was placed in a FLIPR TETRA instrument (MDS Analytical Technologies, Sunnyvale Calif.), illuminated at 390-420 nm, and fluorescence emissions were recorded at approximately 1 Hz at 460 and 580 nm. Following a 7 second baseline reading, 0.025 mL of VIPR-S containing 10 μM veratridine for Nav1.5 or 20 μM veratridine for Nav1.7 was added to each well, and the emissions of both dyes were recorded for an additional 33 seconds. The change in fluorescence resonance energy transfer (FRET) ratio (F/F0) was calculated as: F/F0=((A460/A580/(I460/I580) where A and I represent the readings after or before addition of veratridine, respectively, at the indicated wavelengths. For I, the readings from 2-5 seconds were averaged, and for A, readings from 3 seconds after the signal had reached a plateau level (usually within 30-40 s) were also averaged. Triplicate measurements were performed for each experimental condition and the data were averaged.

[5] = system: human prostate tissue; assay: Staining of human prostate paraffin embedded tissue slices; conditions: 100 μM
Procedure: The binding and localization of compound 26 in prostate and prostate cancer tissue was studied. Human prostate paraffin embedded tissue slices were stained with 100 μM of compound 26 and dansyl amine.

T2 sequence (Q99250 whole entry, canonical isoform): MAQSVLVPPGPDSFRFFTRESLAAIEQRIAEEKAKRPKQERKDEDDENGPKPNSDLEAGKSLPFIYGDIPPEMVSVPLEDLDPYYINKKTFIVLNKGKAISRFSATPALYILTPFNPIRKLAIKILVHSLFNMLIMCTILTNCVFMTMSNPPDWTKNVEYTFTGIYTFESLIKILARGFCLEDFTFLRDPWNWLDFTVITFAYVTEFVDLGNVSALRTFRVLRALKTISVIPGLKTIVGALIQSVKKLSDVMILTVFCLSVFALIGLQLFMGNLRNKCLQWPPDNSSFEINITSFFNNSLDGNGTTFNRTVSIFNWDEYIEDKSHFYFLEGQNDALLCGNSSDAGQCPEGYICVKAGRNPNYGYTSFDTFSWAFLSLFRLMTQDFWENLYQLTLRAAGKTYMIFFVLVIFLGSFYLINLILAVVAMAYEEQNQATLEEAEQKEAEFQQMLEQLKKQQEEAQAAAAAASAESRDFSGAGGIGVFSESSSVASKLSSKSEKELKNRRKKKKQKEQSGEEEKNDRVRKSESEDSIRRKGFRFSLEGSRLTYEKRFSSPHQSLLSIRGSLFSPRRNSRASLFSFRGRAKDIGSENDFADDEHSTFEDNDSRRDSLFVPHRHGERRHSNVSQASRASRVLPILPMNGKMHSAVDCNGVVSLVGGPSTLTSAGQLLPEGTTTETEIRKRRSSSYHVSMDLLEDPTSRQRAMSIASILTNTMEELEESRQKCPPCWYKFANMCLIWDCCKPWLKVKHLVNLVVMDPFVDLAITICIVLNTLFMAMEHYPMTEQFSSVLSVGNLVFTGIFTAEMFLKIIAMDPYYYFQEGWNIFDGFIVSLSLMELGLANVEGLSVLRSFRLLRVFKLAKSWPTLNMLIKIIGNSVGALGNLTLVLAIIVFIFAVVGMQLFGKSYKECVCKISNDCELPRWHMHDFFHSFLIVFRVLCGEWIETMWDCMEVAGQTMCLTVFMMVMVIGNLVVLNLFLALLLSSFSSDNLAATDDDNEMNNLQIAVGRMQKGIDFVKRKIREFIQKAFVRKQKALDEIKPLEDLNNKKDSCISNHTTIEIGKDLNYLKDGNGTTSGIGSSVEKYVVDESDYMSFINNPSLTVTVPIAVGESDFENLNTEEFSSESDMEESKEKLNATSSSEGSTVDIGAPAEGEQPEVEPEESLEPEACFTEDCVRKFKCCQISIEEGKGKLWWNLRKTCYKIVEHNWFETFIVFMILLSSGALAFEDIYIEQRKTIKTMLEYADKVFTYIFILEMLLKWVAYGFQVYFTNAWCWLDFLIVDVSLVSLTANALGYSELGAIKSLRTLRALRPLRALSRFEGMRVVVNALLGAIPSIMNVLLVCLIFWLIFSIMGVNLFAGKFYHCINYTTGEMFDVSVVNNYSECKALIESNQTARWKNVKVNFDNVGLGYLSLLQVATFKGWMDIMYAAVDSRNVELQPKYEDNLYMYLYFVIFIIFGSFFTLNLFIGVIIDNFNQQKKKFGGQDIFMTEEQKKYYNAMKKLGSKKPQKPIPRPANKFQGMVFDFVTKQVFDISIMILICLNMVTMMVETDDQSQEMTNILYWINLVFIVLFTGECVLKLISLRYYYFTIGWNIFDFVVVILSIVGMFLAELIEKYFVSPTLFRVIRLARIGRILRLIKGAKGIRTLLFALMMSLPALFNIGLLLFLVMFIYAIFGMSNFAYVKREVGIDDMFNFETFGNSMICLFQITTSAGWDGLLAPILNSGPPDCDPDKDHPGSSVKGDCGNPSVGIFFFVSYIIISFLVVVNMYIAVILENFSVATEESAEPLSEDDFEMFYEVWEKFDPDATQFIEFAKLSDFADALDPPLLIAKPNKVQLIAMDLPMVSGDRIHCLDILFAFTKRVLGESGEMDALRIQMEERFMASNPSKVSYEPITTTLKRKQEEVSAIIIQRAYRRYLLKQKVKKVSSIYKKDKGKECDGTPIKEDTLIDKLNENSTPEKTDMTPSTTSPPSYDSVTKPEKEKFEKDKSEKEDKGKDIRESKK
T1 sequence (Q12809 whole entry): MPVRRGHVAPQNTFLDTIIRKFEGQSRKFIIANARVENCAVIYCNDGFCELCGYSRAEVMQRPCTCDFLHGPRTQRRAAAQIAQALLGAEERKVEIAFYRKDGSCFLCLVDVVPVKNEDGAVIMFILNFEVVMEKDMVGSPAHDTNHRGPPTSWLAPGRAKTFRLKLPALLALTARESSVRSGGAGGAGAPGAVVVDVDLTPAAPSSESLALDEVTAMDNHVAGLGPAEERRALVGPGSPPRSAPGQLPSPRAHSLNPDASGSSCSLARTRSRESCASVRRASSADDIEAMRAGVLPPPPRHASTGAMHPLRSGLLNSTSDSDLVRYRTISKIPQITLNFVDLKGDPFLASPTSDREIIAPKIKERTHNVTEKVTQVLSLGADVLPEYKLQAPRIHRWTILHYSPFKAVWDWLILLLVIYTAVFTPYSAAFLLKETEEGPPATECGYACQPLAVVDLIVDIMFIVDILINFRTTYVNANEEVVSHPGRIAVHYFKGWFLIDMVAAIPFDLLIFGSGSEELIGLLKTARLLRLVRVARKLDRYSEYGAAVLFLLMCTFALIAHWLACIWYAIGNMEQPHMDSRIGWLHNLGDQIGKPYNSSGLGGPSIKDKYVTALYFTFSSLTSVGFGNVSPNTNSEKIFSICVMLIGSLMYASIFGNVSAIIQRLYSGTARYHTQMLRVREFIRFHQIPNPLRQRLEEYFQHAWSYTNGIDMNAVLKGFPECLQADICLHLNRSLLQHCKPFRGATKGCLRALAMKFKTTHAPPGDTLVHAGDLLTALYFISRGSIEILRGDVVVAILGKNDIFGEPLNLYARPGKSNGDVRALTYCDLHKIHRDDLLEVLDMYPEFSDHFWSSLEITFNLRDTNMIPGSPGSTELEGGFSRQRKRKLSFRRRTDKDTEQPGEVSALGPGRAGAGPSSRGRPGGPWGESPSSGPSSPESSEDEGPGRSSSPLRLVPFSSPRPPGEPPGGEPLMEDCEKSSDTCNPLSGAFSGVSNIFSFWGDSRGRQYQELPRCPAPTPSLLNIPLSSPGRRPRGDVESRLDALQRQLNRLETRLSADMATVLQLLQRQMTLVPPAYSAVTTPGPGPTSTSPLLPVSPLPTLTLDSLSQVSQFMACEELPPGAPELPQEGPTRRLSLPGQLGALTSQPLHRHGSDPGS
T3 sequence (Q15858 whole entry): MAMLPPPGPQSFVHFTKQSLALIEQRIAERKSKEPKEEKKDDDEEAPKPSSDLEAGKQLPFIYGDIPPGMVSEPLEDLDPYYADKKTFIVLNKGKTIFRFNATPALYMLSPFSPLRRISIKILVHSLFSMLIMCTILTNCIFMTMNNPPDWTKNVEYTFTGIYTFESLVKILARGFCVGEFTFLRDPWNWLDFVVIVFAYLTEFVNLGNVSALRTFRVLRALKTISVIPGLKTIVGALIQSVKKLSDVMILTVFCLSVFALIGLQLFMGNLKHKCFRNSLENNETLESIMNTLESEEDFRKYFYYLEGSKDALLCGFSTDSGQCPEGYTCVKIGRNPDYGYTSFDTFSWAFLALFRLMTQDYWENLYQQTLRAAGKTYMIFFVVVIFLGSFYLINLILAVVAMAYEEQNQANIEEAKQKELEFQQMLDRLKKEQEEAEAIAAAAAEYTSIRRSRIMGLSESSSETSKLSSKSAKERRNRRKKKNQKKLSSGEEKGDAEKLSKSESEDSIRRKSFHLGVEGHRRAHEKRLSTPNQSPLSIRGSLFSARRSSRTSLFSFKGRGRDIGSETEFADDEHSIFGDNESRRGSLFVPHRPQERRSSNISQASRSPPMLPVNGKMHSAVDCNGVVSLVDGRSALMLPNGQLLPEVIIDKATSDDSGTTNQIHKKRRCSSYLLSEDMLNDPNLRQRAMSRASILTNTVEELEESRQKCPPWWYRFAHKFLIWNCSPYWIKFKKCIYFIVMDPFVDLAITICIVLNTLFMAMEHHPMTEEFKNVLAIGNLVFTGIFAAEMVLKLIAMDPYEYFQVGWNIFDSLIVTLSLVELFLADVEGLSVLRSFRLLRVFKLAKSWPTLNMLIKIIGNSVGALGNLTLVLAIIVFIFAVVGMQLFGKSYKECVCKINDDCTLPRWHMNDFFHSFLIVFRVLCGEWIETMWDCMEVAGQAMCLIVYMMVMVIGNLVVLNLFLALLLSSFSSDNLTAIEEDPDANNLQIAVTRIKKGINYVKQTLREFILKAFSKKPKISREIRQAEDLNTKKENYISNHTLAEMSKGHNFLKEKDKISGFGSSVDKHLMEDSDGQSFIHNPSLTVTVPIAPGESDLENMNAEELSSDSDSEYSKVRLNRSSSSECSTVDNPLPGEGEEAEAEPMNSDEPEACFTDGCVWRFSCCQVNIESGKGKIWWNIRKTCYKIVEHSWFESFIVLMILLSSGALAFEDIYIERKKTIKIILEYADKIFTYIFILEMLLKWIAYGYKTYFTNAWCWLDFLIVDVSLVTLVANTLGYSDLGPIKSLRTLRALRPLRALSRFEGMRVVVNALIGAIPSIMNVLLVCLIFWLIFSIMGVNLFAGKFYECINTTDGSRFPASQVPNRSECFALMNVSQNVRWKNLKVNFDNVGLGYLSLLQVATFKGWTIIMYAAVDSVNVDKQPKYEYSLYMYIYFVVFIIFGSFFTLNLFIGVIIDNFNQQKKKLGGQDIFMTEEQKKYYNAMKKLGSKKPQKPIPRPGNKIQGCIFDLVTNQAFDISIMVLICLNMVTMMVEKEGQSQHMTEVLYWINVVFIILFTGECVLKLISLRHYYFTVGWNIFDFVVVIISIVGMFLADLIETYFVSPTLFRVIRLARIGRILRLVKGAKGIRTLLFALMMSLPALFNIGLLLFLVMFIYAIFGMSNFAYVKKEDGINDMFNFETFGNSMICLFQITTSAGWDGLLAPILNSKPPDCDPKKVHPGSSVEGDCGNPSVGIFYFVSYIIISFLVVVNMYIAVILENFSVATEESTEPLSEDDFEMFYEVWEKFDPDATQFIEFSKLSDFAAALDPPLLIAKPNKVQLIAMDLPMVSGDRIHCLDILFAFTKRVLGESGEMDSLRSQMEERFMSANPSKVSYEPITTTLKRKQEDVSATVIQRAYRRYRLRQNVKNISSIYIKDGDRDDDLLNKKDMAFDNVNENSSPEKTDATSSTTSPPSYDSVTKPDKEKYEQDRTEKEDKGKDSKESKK

Row | Structure (SMILES) | % inhibition for hERG assay, 0.3 μM [1] [%] | % inhibition for hERG assay, 1 μM [1] [%] | % inhibition for hERG assay, 3 μM [1] [%] | % inhibition for hERG assay, 10 μM [1] [%] | % inhibition for hERG assay, 30 μM [1] [%] | cell death of CWR22rv-1 cells ([2]; 25 μM, after 24 h) | cell death of CWR22rv-1 cells ([2]; after 72 h) [%] | inhibition at 1 µM [3] [%] | inhibition at 10 µM [3] [%] | IC50 [4] [nM] | binding to human prostate tissue (microscopy) [5]
1 | CCCCCCC[C@](O)(C(N)=O)c1cccc(Cl)c1 [Compound (R)-(−)-1, (R)-(−)-2-(3-chloro-phenyl)-2-hydroxy-nonanoic acid amide] | 16 | 26 | 20 | 57 | 90 | approximately 25% | 60 | 67.4 ± 5.3 | 94.3 ± 0.6 | 1880 | 
2 | CCCCCCC[C@@](O)(C(N)=O)c1cccc(Cl)c1 [Compound (S)-(+)-1, (S)-(+)-2-(3-chloro-phenyl)-2-hydroxy-nonanoic acid amide] | 10 | 25 | 33 | 65 | 90 | marginal effects | 40 | 34.9 ± 2.3 | 91.5 ± 0.5 | 2620 | 
3 | CN(C)c1cccc2c(S(N)(=O)=O)cccc12 [dansyl amine, reference compound] |  |  |  |  |  |  |  |  |  |  | does not bind
